The values below come from patent publication US12227495B2, “Herbicidal compounds” (SYNGENTA CROP PROTECTION AG, priority 2018, dated 2025).

Format in all cases: in vivo
For assay [1], the system named is Lolium perenne (LOLPE). The experiment in a line: Post-emergence herbicide test, glasshouse, percentage damage. The settings on record: 1000 g/ha, evaluated after 13 days. Put shortly: (§1)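 Seeds sown in pots; cultured 1 day (pre-emergence) or 8 days (post-emergence) in a controlled glasshouse; then sprayed with the active in acetone/water 50:50 plus 0.5% Tween 20 at 500 g/ha unless noted; grown on 13 days; damage assessed and banded into five classes.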

Assay [2] deals with Amaranthus retoflexus (AMARE). The assay is described as above. The settings on record: 1000 g/ha, evaluated after 13 days. The method in brief:
as §1

For assay [3], the system named is Ipomoea hederacea (IPOHE). Described as above. Conditions: 1000 g/ha, evaluated after 13 days. The method in brief: as §1
Assay [4] concerns Solanum nigrum (SOLNI). The assay is described as above. The settings on record: 1000 g/ha, evaluated after 13 days. Put shortly:
as §1

In assay [5] the test system is Echinochloa crus-galli (ECHCG). Described as above. The settings on record: 1000 g/ha, evaluated after 13 days. The method in brief:
as §1

The test system of assay [6] is Setaria faberi (SETFA). The assay is described as above. The settings on record: 1000 g/ha, evaluated after 13 days. Put shortly:
as §1

For assay [7], the system named is Lolium perenne (LOLPE). The assay is described as follows: Pre-emergence herbicide test, glasshouse, percentage damage. Conditions: rate 1000 g/ha, evaluated after 13 days. The method in brief: as §1
Assay [8] has as its system Amaranthus retoflexus (AMARE). The assay is described as above. Conditions: rate 1000 g/ha, evaluated after 13 days. Put shortly:
as §1

In assay [9] the test system is Ipomoea hederacea (IPOHE). Described as above. Conditions: rate 1000 g/ha, evaluated after 13 days. Put shortly:
as §1

The subject of assay [10] is Solanum nigrum (SOLNI). Described as above. Conditions: rate 1000 g/ha, evaluated after 13 days. The method in brief: as §1
The subject of assay [11] is Echinochloa crus-galli (ECHCG). The assay is described as above. Conditions: rate 1000 g/ha, evaluated after 13 days. The method in brief: as §1
Assay [12] relates to Setaria faberi (SETFA). Described as above. Conditions: rate 1000 g/ha, evaluated after 13 days. Put shortly:
as §1

In the case of `N#Cc1ccc(Oc2cccc(Cl)c2-c2cc(C(F)F)no2)nc1` [Compound A115], in assay [1], the “percentage damage caused to the plant, LOLPE” value is 4 (4=61-80%). The “percentage damage caused to the plant, AMARE” value in assay [2] was 5 (5=81-100%). Also, in [3], the “percentage damage caused to the plant, IPOHE” value is listed as 5 (5=81-100%). In assay [4], the “percentage damage caused to the plant, SOLNI” value is 5 (5=81-100%). Besides, in assay [5], the “percentage damage caused to the plant, ECHCG” value was 4 (4=61-80%). Further, the “percentage damage caused to the plant, SETFA” value in assay [6] was 5 (5=81-100%). Further, the “Pre-emergence Test LOLPE percentage damage (five point scale)” value in assay [7] is recorded as 5 (5=81-100%). Further, in [8], the “Pre-emergence Test AMARE percentage damage (five point scale)” value is given as 5 (5=81-100%). Also, the “Pre-emergence Test IPOHE percentage damage (five point scale)” value in assay [9] is given as 5 (5=81-100%). Besides, the “Pre-emergence Test SOLNI percentage damage (five point scale)” value in assay [10] is 4 (4=61-80%). Also, in assay [11], the “Pre-emergence Test ECHCG percentage damage (five point scale)” value is on record as 5 (5=81-100%). For the same molecule, in assay [12], the “Pre-emergence Test SETFA percentage damage (five point scale)” value was 5 (5=81-100%).
For the molecule `Fc1cc(Br)cnc1Oc1cccc(Cl)c1-c1cc(C(F)F)no1` [Compound A116], the “percentage damage caused to the plant, LOLPE” value in assay [1] is 5 (5=81-100%). For the same molecule, in [2], the “percentage damage caused to the plant, AMARE” value is reported as 5 (5=81-100%). Moreover, in assay [3], the “percentage damage caused to the plant, IPOHE” value is 5 (5=81-100%). In assay [4], the “percentage damage caused to the plant, SOLNI” value is reported as 5 (5=81-100%). In addition, the “percentage damage caused to the plant, ECHCG” value in assay [5] was 4 (4=61-80%). The “percentage damage caused to the plant, SETFA” value in [6] is on record as 5 (5=81-100%). Also, the “Pre-emergence Test LOLPE percentage damage (five point scale)” value in assay [7] is on record as 5 (5=81-100%). The “Pre-emergence Test AMARE percentage damage (five point scale)” value in [8] was 5 (5=81-100%). Moreover, the “Pre-emergence Test IPOHE percentage damage (five point scale)” value in assay [9] is on record as 4 (4=61-80%). Further, the “Pre-emergence Test SOLNI percentage damage (five point scale)” value in assay [10] was 4 (4=61-80%). In addition, the “Pre-emergence Test ECHCG percentage damage (five point scale)” value in assay [11] is 5 (5=81-100%). Moreover, the “Pre-emergence Test SETFA percentage damage (five point scale)” value in [12] was 5 (5=81-100%).
On to `Fc1cc(C(F)(F)F)cnc1Oc1cccc(Cl)c1-c1cc(C(F)F)no1` [Compound A117], for which the “percentage damage caused to the plant, LOLPE” value in assay [1] was 4 (4=61-80%). Moreover, the “percentage damage caused to the plant, AMARE” value in assay [2] is listed as 5 (5=81-100%). Further, the “percentage damage caused to the plant, IPOHE” value in assay [3] is recorded as 5 (5=81-100%). Moreover, the “percentage damage caused to the plant, SOLNI” value in [4] was 4 (4=61-80%). Further, the “percentage damage caused to the plant, ECHCG” value in assay [5] is on record as 4 (4=61-80%). The “percentage damage caused to the plant, SETFA” value in assay [6] is 4 (4=61-80%). Also, in [7], the “Pre-emergence Test LOLPE percentage damage (five point scale)” value is reported as 4 (4=61-80%). The “Pre-emergence Test AMARE percentage damage (five point scale)” value in assay [8] is 5 (5=81-100%). Also, the “Pre-emergence Test IPOHE percentage damage (five point scale)” value in assay [9] is recorded as 5 (5=81-100%). In assay [10], the “Pre-emergence Test SOLNI percentage damage (five point scale)” value is given as 2 (2=21-40%). Besides, the “Pre-emergence Test ECHCG percentage damage (five point scale)” value in assay [11] was 4 (4=61-80%). Also, the “Pre-emergence Test SETFA percentage damage (five point scale)” value in [12] is 5 (5=81-100%).
As for `N#Cc1cc(C(F)(F)F)cnc1Oc1cccc(Cl)c1-c1cc(C(F)F)no1` [Compound A118], the “percentage damage caused to the plant, LOLPE” value in assay [1] is listed as 5 (5=81-100%). Also, the “percentage damage caused to the plant, AMARE” value in assay [2] is recorded as 5 (5=81-100%). In assay [3], the “percentage damage caused to the plant, IPOHE” value was 5 (5=81-100%). Further, the “percentage damage caused to the plant, SOLNI” value in [4] is 5 (5=81-100%). For the same molecule, the “percentage damage caused to the plant, ECHCG” value in assay [5] is recorded as 5 (5=81-100%). Also, the “percentage damage caused to the plant, SETFA” value in assay [6] is on record as 5 (5=81-100%). Besides, in assay [7], the “Pre-emergence Test LOLPE percentage damage (five point scale)” value is recorded as 5 (5=81-100%). Besides, the “Pre-emergence Test AMARE percentage damage (five point scale)” value in assay [8] is recorded as 5 (5=81-100%). In addition, the “Pre-emergence Test IPOHE percentage damage (five point scale)” value in assay [9] is 4 (4=61-80%). The “Pre-emergence Test SOLNI percentage damage (five point scale)” value in assay [10] was 4 (4=61-80%). The “Pre-emergence Test ECHCG percentage damage (five point scale)” value in [11] is on record as 5 (5=81-100%). The “Pre-emergence Test SETFA percentage damage (five point scale)” value in [12] is reported as 5 (5=81-100%).
Turning to `FC(F)c1cc(-c2c(Cl)cccc2Oc2ccc(Br)cn2)on1` [Compound A119], the “percentage damage caused to the plant, LOLPE” value in assay [1] was 5 (5=81-100%). Besides, in assay [2], the “percentage damage caused to the plant, AMARE” value was 5 (5=81-100%). Further, in [3], the “percentage damage caused to the plant, IPOHE” value was 5 (5=81-100%). In assay [4], the “percentage damage caused to the plant, SOLNI” value is given as 5 (5=81-100%). Further, the “percentage damage caused to the plant, ECHCG” value in assay [5] is listed as 4 (4=61-80%). For the same molecule, the “percentage damage caused to the plant, SETFA” value in [6] is 5 (5=81-100%). The “Pre-emergence Test LOLPE percentage damage (five point scale)” value in [7] is reported as 5 (5=81-100%). For the same molecule, the “Pre-emergence Test AMARE percentage damage (five point scale)” value in assay [8] was 5 (5=81-100%). For the same molecule, the “Pre-emergence Test IPOHE percentage damage (five point scale)” value in assay [9] was 4 (4=61-80%). In addition, the “Pre-emergence Test SOLNI percentage damage (five point scale)” value in assay [10] was 4 (4=61-80%). Moreover, in assay [11], the “Pre-emergence Test ECHCG percentage damage (five point scale)” value is on record as 5 (5=81-100%). The “Pre-emergence Test SETFA percentage damage (five point scale)” value in assay [12] is 5 (5=81-100%).
Take `N#Cc1cccnc1Oc1cccc(Cl)c1-c1cc(C(F)F)no1` [Compound A120]: the “percentage damage caused to the plant, LOLPE” value in [1] is recorded as 3 (3=41-60%). In addition, the “percentage damage caused to the plant, AMARE” value in assay [2] is 5 (5=81-100%). Moreover, in assay [3], the “percentage damage caused to the plant, IPOHE” value was 4 (4=61-80%). Moreover, the “percentage damage caused to the plant, SOLNI” value in [4] is 5 (5=81-100%). Also, the “percentage damage caused to the plant, ECHCG” value in [5] is recorded as 4 (4=61-80%). Moreover, the “percentage damage caused to the plant, SETFA” value in [6] is reported as 5 (5=81-100%). Besides, the “Pre-emergence Test LOLPE percentage damage (five point scale)” value in assay [7] is given as 2 (2=21-40%). Besides, the “Pre-emergence Test AMARE percentage damage (five point scale)” value in assay [8] is recorded as 5 (5=81-100%). Moreover, the “Pre-emergence Test IPOHE percentage damage (five point scale)” value in assay [9] is recorded as 3 (3=41-60%). For the same molecule, the “Pre-emergence Test SOLNI percentage damage (five point scale)” value in [10] is 4 (4=61-80%). Moreover, the “Pre-emergence Test ECHCG percentage damage (five point scale)” value in [11] is 5 (5=81-100%). Besides, in assay [12], the “Pre-emergence Test SETFA percentage damage (five point scale)” value is recorded as 5 (5=81-100%).
`Fc1cc(Cl)cnc1Oc1ccccc1-n1ccc(C(F)(F)F)n1` [Compound A121]: the “percentage damage caused to the plant, LOLPE” value in [1] is 1 (1=0-20%). The “percentage damage caused to the plant, AMARE” value in [2] is listed as 4 (4=61-80%). For the same molecule, the “percentage damage caused to the plant, IPOHE” value in [3] is reported as 2 (2=21-40%). For the same molecule, in [4], the “percentage damage caused to the plant, SOLNI” value was 4 (4=61-80%). In assay [5], the “percentage damage caused to the plant, ECHCG” value was 3 (3=41-60%). Further, in assay [6], the “percentage damage caused to the plant, SETFA” value is recorded as 3 (3=41-60%). The “Pre-emergence Test LOLPE percentage damage (five point scale)” value in assay [7] is 1 (1=0-20%). For the same molecule, in assay [8], the “Pre-emergence Test AMARE percentage damage (five point scale)” value is recorded as 4 (4=61-80%). The “Pre-emergence Test IPOHE percentage damage (five point scale)” value in [9] is 1 (1=0-20%). Moreover, the “Pre-emergence Test SOLNI percentage damage (five point scale)” value in assay [10] is 1 (1=0-20%). Also, the “Pre-emergence Test ECHCG percentage damage (five point scale)” value in [11] was 4 (4=61-80%). Also, in [12], the “Pre-emergence Test SETFA percentage damage (five point scale)” value is given as 3 (3=41-60%).
For the molecule `Fc1cc(Cl)cnc1Oc1cccc(Cl)c1-n1cc(C(F)(F)F)cn1` [Compound A159], in assay [1], the “percentage damage caused to the plant, LOLPE” value was 4 (4=61-80%). Further, the “percentage damage caused to the plant, AMARE” value in [2] was 5 (5=81-100%). The “percentage damage caused to the plant, IPOHE” value in assay [3] is recorded as 4 (4=61-80%). The “percentage damage caused to the plant, SOLNI” value in assay [4] is recorded as 5 (5=81-100%). Besides, in [5], the “percentage damage caused to the plant, ECHCG” value is 3 (3=41-60%). Further, in assay [6], the “percentage damage caused to the plant, SETFA” value was 5 (5=81-100%). Besides, in [7], the “Pre-emergence Test LOLPE percentage damage (five point scale)” value is reported as 5 (5=81-100%). Besides, in assay [8], the “Pre-emergence Test AMARE percentage damage (five point scale)” value is 5 (5=81-100%). Besides, in assay [9], the “Pre-emergence Test IPOHE percentage damage (five point scale)” value is on record as 2 (2=21-40%). In [10], the “Pre-emergence Test SOLNI percentage damage (five point scale)” value was 5 (5=81-100%). Besides, the “Pre-emergence Test ECHCG percentage damage (five point scale)” value in [11] is recorded as 5 (5=81-100%). In [12], the “Pre-emergence Test SETFA percentage damage (five point scale)” value is recorded as 5 (5=81-100%).
